Measurements from US4030886A, “Saturation analysis” (The Radiochemical Centre Limited, priority 1973, dated 1977).
Like-named read-outs stand apart in the source and are kept apart here.

What was measured:
[1] = test system: antiserum raised in rabbits against estriol-6-CMO-BSA; assay: Assay for estriol using 2-(methylseleno)-ethylamine-Se75 conjugate of estriol-6CMO; format: binding, rabbit; details: 300 pg label, antiserum 1:200
Description: Into each assay tube was dispensed 0.1M phosphate buffer containing 5% human serum (pH 7.0; 200 μl), antiserum raised in rabbits against estriol-6-CMO-BSA and diluted 1 : 200 in 0.1M phosphate buffer containing 5% human serum (200 μl), and 2-(methylseleno)-Ethylamine-Se 75 conjugate of estriol-6-CMO (300 pg; 18 Ci/m mol).

[2] = test system: antiserum raised in rabbit against estriol-6-CMO-BSA; details: 4 ng label, antiserum 1:200
Description: Into each assay tube was dispensed 0.1M phosphate buffer containing 5% human serum (pH 7.0; 200μl), antiserum raised in rabbit against estriol-6-CMO-BSA and diluted 1:200 in 0.1M Phosphate buffer containing 5% human serum (200μl), and selenomethionine-Se75 conjugate of estriol-6-CMO (4 ng; 400 mCi/m mol). Standard amounts of estriol (1.25 ng, 10 ng and 20 ng) in human serum were added to each assay tube; to one tube was added buffer instead of antiserum as a blank. The contents of each tube were mixed and incubated at room temperature for one hour. Ammonium sulphate solution was then added (5.4g (NH4)2 SO4 = 10 ml H2 O; 500 μl) and after mixing, the solutions were centrifuged. The supernatant was removed and the precipitate counted in a gamma counter. The percentage of total counts bound to the precipitate was calculated.

C[75Se]CCNC(=O)CON=C1C[C@@H]2[C@H](CC[C@]3(C)[C@@H](O)[C@H](O)C[C@@H]23)c2ccc(O)cc21 [2-(methylseleno)-ethylamine - Se 75 conjugate of estriol-6-carboxymethyloxime]
% of total counts bound minus blanks ([1]; 0 ng estriol added): 45.9%
% of total counts bound minus blanks ([1]; 1.5 ng estriol added): 37.5%
% of total counts bound minus blanks ([1]; 3.1 ng estriol added): 35.6%
% of total counts bound minus blanks ([1]; 6.3 ng estriol added): 32.0%
% of total counts bound minus blanks ([1]; 12.5 ng estriol added): 29.2%
% of total counts bound minus blanks ([1]; 25 ng estriol added): 24.7%

selenomethionine-Se75 conjugate of estriol-6-carboxymethyloxime
% of total counts bound minus blank ([2]; 0 ng estriol added): 59.1%
% of total counts bound minus blank ([2]; 1.25 ng estriol added): 55.3%
% of total counts bound minus blank ([2]; 10 ng estriol added): 44.3%
% of total counts bound minus blank ([2]; 20 ng estriol added): 39.0%
